The values that follow come from patent EP0754193B1, “HEPATITIS C VIRUS CORE PEPTIDE FOR STIMULATION OF CYTOTOXIC T LYMPHOCYTES AND DIAGNOSIS OF HCV EXPOSURE” (priority 1994, dated 1995).

The data set relates to 18Neo (H-2^d; class I MHC^+, class II MHC^- neomycin-resistance gene-transfected 3T3 fibroblast). The note with it: in the absence of CTL.

Where no end group is shown, it is not given here.

As to GFADLMGYIPLVGAPL [Peptide C7], the “direct toxicity to the cells” value is given as “not directly toxic”.
